Assay results from US12528947B2, “Infrared-absorbing composition, film, optical filter, solid-state imaging element, image display device, and infrared sensor” (FUJIFILM Corporation, priority 2020, dated 2026).

Columns and labels:
[1] = Maximal absorption wavelength of infrared-absorbing coloring agent in good solvent; format: physicochemical; conditions: coloring agent solution in dimethyl sulfoxide; for λmax: largest absorbance in 650 to 1500 nm; for Number of maximal absorption wavelengths: wavelength range 650 to 1500 nm
Method: Each infrared-absorbing coloring agent was dissolved in a solvent (good solvent) descried in the following table to prepare a coloring agent solution having a concentration of infrared-absorbing coloring agent of […], and absorption spectrum of the coloring agent solution was measured. The number of maximal absorption wavelengths existing in a wavelength range of 650 to 1500 nm and the wavelength (max) indicating the value having the largest absorbance are shown in the following table.

[2] = Evaluation of dissolved amount of infrared-absorbing coloring agent; format: physicochemical; conditions: 25° C., after stirring for 1 hour
Method: The infrared-absorbing coloring agent shown in the tables below was added to a measurement solvent shown in the tables below, while the temperature was adjusted to 25° C. under atmospheric pressure. After stirring for 1 hour, the dissolved amount of each infrared-absorbing coloring agent in the measurement solvent at 25° C. was determined. The dissolved amount of the infrared-absorbing coloring agent was evaluated based on the following standard. A case of A was judged to be a good solvent, and a case of B was judged to be a poor solvent. The infrared-absorbing coloring agent exists as particles in the poor solvent. PGMEA described in the column of measurement solvent in the following tables is an abbreviation for propylene glycol monomethyl ether acetate. • A: dissolved amount of the infrared-absorbing coloring agent in 100 g of the measurement solvent at 25° C. was 0.1 g or more. • B: dissolved amount of the infrared-absorbing coloring agent in 100 g of the measurement solvent at 25° C. was less than 0.1 g.

With `Cc1ccccc1-c1c2/c(=C(\C#N)c3ccc4ccccc4n3)n(B(c3ccccc3)c3ccccc3)c(-c3ccc(OCCCCS(=O)(=O)O)cc3)c2/c(=C(\C#N)c2ccc3ccccc3n2)n1B(c1ccccc1)c1ccccc1` [Example A-1] the λmax [1] was 819 nm, the “Number of maximal absorption wavelengths” value [1] was 2 and the Solubility ([2]; Cyclopentanone) was “B (dissolved amount of the infrared-absorbing coloring agent in 100 g of the measurement solvent at 25 °C was less than 0.1 g)”. The Solubility ([2]; Dimethyl sulfoxide) was “A (dissolved amount of the infrared-absorbing coloring agent in 100 g of the measurement solvent at 25 °C was 0.1 g or more)”, the Solubility ([2]; PGMEA) was “B (dissolved amount of the infrared-absorbing coloring agent in 100 g of the measurement solvent at 25 °C was less than 0.1 g)” and the Solubility ([2]; Water) was “B (dissolved amount of the infrared-absorbing coloring agent in 100 g of the measurement solvent at 25 °C was less than 0.1 g)”.
With `Cc1ccccc1-c1c2/c(=C(\C#N)c3nc4ccccc4s3)n(B(c3ccccc3)c3ccccc3)c(-c3ccc(OCCCN(C)C)cc3)c2/c(=C(\C#N)c2nc3ccccc3s2)n1B(c1ccccc1)c1ccccc1` [Example A-3] the λmax [1] was 780 nm, the “Number of maximal absorption wavelengths” value [1] was 2 and the Solubility ([2]; Cyclopentanone) was “B (dissolved amount of the infrared-absorbing coloring agent in 100 g of the measurement solvent at 25 °C was less than 0.1 g)”. For the same compound, the Solubility ([2]; Dimethyl sulfoxide) was “A (dissolved amount of the infrared-absorbing coloring agent in 100 g of the measurement solvent at 25 °C was 0.1 g or more)”, the Solubility ([2]; PGMEA) was “B (dissolved amount of the infrared-absorbing coloring agent in 100 g of the measurement solvent at 25 °C was less than 0.1 g)” and the Solubility ([2]; Water) was “B (dissolved amount of the infrared-absorbing coloring agent in 100 g of the measurement solvent at 25 °C was less than 0.1 g)”.
With `Cc1ccccc1-c1c2/c(=C(\C#N)c3ccc4ccccc4n3)n(B(c3ccccc3)c3ccccc3)c(-c3ccc(OCCO)cc3)c2/c(=C(\C#N)c2ccc3ccccc3n2)n1B(c1ccccc1)c1ccccc1` [Comparative coloring agent 1, reference compound] the λmax [1] was 819 nm, the “Number of maximal absorption wavelengths” value [1] was 2 and the Solubility ([2]; Cyclopentanone) was “B (dissolved amount of the infrared-absorbing coloring agent in 100 g of the measurement solvent at 25 °C was less than 0.1 g)”. For the same compound, the Solubility ([2]; Dimethyl sulfoxide) was “A (dissolved amount of the infrared-absorbing coloring agent in 100 g of the measurement solvent at 25 °C was 0.1 g or more)”, the Solubility ([2]; PGMEA) was “B (dissolved amount of the infrared-absorbing coloring agent in 100 g of the measurement solvent at 25 °C was less than 0.1 g)” and the Solubility ([2]; Water) was “B (dissolved amount of the infrared-absorbing coloring agent in 100 g of the measurement solvent at 25 °C was less than 0.1 g)”.
In the case of `Cc1ccccc1-c1c2/c(=C(\C#N)c3nc4ccccc4s3)n(B(c3ccccc3)c3ccccc3)c(-c3ccc(OCCCCS(=O)(=O)O)cc3)c2/c(=C(\C#N)c2nc3ccccc3s2)n1B(c1ccccc1)c1ccccc1` [Example A-4], the λmax [1] is reported as 779 nm, the “Number of maximal absorption wavelengths” value [1] is reported as 2 and the Solubility ([2]; Cyclopentanone) is reported as “B (dissolved amount of the infrared-absorbing coloring agent in 100 g of the measurement solvent at 25 °C was less than 0.1 g)”. For the same compound, the Solubility ([2]; Dimethyl sulfoxide) was “A (dissolved amount of the infrared-absorbing coloring agent in 100 g of the measurement solvent at 25 °C was 0.1 g or more)”, the Solubility ([2]; PGMEA) was “B (dissolved amount of the infrared-absorbing coloring agent in 100 g of the measurement solvent at 25 °C was less than 0.1 g)” and the Solubility ([2]; Water) was “B (dissolved amount of the infrared-absorbing coloring agent in 100 g of the measurement solvent at 25 °C was less than 0.1 g)”.
For `COc1ccc2nc(/C(C#N)=c3/c4c(-c5ccccc5C)n(B(c5ccccc5)c5ccccc5)/c(=C(/C#N)c5nc6ccc(OC)cc6s5)c4c(-c4ccc(OCCCCS(=O)(=O)O)cc4)n3B(c3ccccc3)c3ccccc3)sc2c1` [Example A-6], the λmax [1] was 801 nm, the “Number of maximal absorption wavelengths” value [1] was 2 and the Solubility ([2]; Cyclopentanone) was “B (dissolved amount of the infrared-absorbing coloring agent in 100 g of the measurement solvent at 25 °C was less than 0.1 g)”. The Solubility ([2]; Dimethyl sulfoxide) was “A (dissolved amount of the infrared-absorbing coloring agent in 100 g of the measurement solvent at 25 °C was 0.1 g or more)”, the Solubility ([2]; PGMEA) was “B (dissolved amount of the infrared-absorbing coloring agent in 100 g of the measurement solvent at 25 °C was less than 0.1 g)” and the Solubility ([2]; Water) was “B (dissolved amount of the infrared-absorbing coloring agent in 100 g of the measurement solvent at 25 °C was less than 0.1 g)”.
For `Cc1ccccc1-c1c2/c(=C(\C#N)c3nc4ccc(Cl)cc4o3)n(B(c3ccccc3)c3ccccc3)c(-c3ccc(OCCCS(=O)(=O)O)cc3)c2/c(=C(\C#N)c2nc3ccc(Cl)cc3o2)n1B(c1ccccc1)c1ccccc1` [Example A-5], the λmax [1] was 746 nm, the “Number of maximal absorption wavelengths” value [1] was 2 and the Solubility ([2]; Cyclopentanone) was “B (dissolved amount of the infrared-absorbing coloring agent in 100 g of the measurement solvent at 25 °C was less than 0.1 g)”. For the same compound, the Solubility ([2]; Dimethyl sulfoxide) was “A (dissolved amount of the infrared-absorbing coloring agent in 100 g of the measurement solvent at 25 °C was 0.1 g or more)”, the Solubility ([2]; PGMEA) was “B (dissolved amount of the infrared-absorbing coloring agent in 100 g of the measurement solvent at 25 °C was less than 0.1 g)” and the Solubility ([2]; Water) was “B (dissolved amount of the infrared-absorbing coloring agent in 100 g of the measurement solvent at 25 °C was less than 0.1 g)”.
In the case of `Cc1ccccc1-c1c2/c(=C(\C#N)c3nc4ccc(Br)cc4o3)n(B(c3ccccc3)c3ccccc3)c(-c3ccc(OCCCS(=O)(=O)O)cc3)c2/c(=C(\C#N)c2nc3ccc(Br)cc3o2)n1B(c1ccccc1)c1ccccc1` [Example A-7], the λmax [1] is reported as 747 nm, the “Number of maximal absorption wavelengths” value [1] is reported as 2 and the Solubility ([2]; Cyclopentanone) is reported as “B (dissolved amount of the infrared-absorbing coloring agent in 100 g of the measurement solvent at 25 °C was less than 0.1 g)”. The Solubility ([2]; Dimethyl sulfoxide) was “A (dissolved amount of the infrared-absorbing coloring agent in 100 g of the measurement solvent at 25 °C was 0.1 g or more)”, the Solubility ([2]; PGMEA) was “B (dissolved amount of the infrared-absorbing coloring agent in 100 g of the measurement solvent at 25 °C was less than 0.1 g)” and the Solubility ([2]; Water) was “B (dissolved amount of the infrared-absorbing coloring agent in 100 g of the measurement solvent at 25 °C was less than 0.1 g)”.
